In ChEMBL document CHEMBL5046231, “Modulation of Naturally Occurring Linear Dipeptide Chirality to Reduce the Affinity for Oligopeptide Transporter 1 and Increase Intestinal Stability for an Enhanced Colon-Targeting Effect in the Treatment of Inflammatory Bowel Disease: An Application of trans-4-l-Hydroxyprolyl-l-serine” (J Med Chem, 2022):
Activity calls are given as the source filed them. No cut-off for these calls is given here.

What was measured:
[1] = Stability in simulated gastric fluid at pH 1.2 assessed as half life measured up to 12 hrs by HPLC analysis; type: ADME
Mus musculus [2] = assay: Anti-colitis activity against DSS-induced colitis in C57BL/6 mouse model assessed as increase in colon length at 25 mg/kg, po administered via gavage twice daily for 10 days; type: functional, organism-based; settings: time 10.0 day
[3] = Metabolic stability in healthy C57BL/6 mouse plasma assessed as half life measured up to 12 hrs by HPLC analysis; type: ADME, cell-free
[4] = Stability in simulated intestinal fluid at pH 6.8 assessed as half life measured up to 12 hrs by HPLC analysis; type: ADME
[5] = Chemical stability in phosphate buffer at pH 7.2 assessed as half life measured up to 12 hrs by HPLC analysis; type: physicochemical
[6] = Chemical stability in 0.1 M HCl at pH 1.2 assessed as half life measured up to 12 hrs by HPLC analysis; type: physicochemical
[7] = Cmax in DSS-induced colitis C57BL/6 mouse model at 25 mg/kg, po measured up to 6 hrs by UPLC-MS/MS analysis; type: ADME, organism-based; design: route oral, dose 25 mg/kg, time <=6; settings: in vivo
Mus musculus [8] = assay: Anti-colitis activity against DSS-induced colitis in C57BL/6 mouse model assessed as assessed as recovery of body weight at 25 mg/kg, po administered via gavage twice daily for 10 days; type: functional, organism-based; settings: time 10.0 day
[9] = Chemical stability in acetate buffer at pH 4.5 assessed as half life measured up to 12 hrs by HPLC analysis; type: physicochemical
[10] = Chemical stability in phosphate buffer at pH 6.8 assessed as half life measured up to 12 hrs by HPLC analysis; type: physicochemical
[11] = Metabolic stability in healthy C57BL/6 mouse jejunum assessed as half life measured up to 12 hrs by HPLC analysis; type: ADME, tissue-based
[12] = target: T1, Solute carrier family 15 member 1 (Homo sapiens, UniProt P46059); assay: Substrate activity at PEPT1 in human Caco-2 cells assessed as inhibition of Gly-Sar substrate uptake by UPLC-MS/MS analysis; type: cell-based; settings: human, caco-2
T1 sequence (P46059 whole entry): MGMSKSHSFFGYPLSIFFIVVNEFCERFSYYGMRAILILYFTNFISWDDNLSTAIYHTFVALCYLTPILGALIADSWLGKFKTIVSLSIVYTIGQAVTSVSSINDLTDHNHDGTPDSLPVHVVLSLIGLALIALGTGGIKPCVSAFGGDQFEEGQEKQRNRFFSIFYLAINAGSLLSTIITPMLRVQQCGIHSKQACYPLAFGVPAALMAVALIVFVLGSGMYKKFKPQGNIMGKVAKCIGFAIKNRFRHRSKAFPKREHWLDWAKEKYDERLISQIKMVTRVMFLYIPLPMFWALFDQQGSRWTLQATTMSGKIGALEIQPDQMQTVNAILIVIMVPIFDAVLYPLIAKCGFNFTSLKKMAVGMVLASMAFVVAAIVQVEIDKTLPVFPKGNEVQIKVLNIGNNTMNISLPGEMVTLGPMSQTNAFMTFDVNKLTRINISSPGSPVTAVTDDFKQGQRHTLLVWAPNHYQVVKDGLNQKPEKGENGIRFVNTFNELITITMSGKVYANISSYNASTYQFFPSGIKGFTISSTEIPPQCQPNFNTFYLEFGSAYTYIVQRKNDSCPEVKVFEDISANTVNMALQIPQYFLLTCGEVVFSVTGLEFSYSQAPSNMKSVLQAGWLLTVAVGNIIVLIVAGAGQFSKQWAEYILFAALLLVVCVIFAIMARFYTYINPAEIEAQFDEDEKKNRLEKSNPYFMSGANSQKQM

[13] = Metabolic stability in DSS-induced C57BL/6 mouse colon assessed as half life measured up to 12 hrs by HPLC analysis; type: ADME, tissue-based
[14] = Metabolic stability in healthy C57BL/6 mouse colon assessed as half life measured up to 12 hrs by HPLC analysis; type: ADME, tissue-based
[15] = Metabolic stability in DSS-induced C57BL/6 inflammatory mouse model colonic flora homogenate assessed as half life measured up to 12 hrs by HPLC analysis; type: ADME; settings: C57BL/6, mouse
[16] = Stability in human Caco-2 cells homogenate assessed as half life measured up to 12 hrs by HPLC analysis; type: ADME, cell-based; settings: Caco-2 cell homogenate
[17] = AUC (0 to 6 hrs) in DSS-induced colitis C57BL/6 mouse model at 25 mg/kg, po measured up to 6 hrs by UPLC-MS/MS analysis; type: ADME, organism-based; design: route oral, dose 25 mg/kg, time <=6; settings: in vivo
[18] = Metabolic stability in healthy C57BL/6 mouse colonic flora homogenate assessed as half life measured up to 12 hrs by HPLC analysis; type: ADME
[19] = Metabolic stability in DSS-induced C57BL/6 mouse jejunum assessed as half life measured up to 12 hrs by HPLC analysis; type: ADME, tissue-based
[20] = Metabolic stability in healthy C57BL/6 mouse liver assessed as half life measured up to 12 hrs by HPLC analysis; type: ADME, tissue-based
[21] = Tmax in DSS-induced colitis C57BL/6 mouse model at 25 mg/kg, po measured up to 6 hrs by UPLC-MS/MS analysis; type: ADME, organism-based; settings: in vivo
Mus musculus [22] = assay: Anti-colitis activity against DSS-induced colitis in C57BL/6 mouse model assessed as fold decrease in disease activity index at 25 mg/kg, po administered via gavage twice daily for 10 days relative to control; type: functional; settings: time 10 day
[23] = target: T1, Solute carrier family 15 member 1; assay: Substrate activity at PEPT1 in human Caco-2 cells assessed as fold increase in drug uptake by UPLC-MS/MS analysis relative to its enantiomers; type: ADME, cell-based

half-life [1] [h]	half-life [3] [h]	half-life [4] [h]	half-life [5] [h]	half-life [6] [h]	Cmax [7] [µM]	half-life [9] [h]	half-life [10] [h]	half-life [11] [h]	inhibition (INH) [12]	half-life [13] [h]	half-life [14] [h]	half-life [15] [h]	half-life [16] [h]	AUC [17] [microM/L.hr]	half-life [18] [h]	half-life [19] [h]	half-life [20] [h]	SMILES	Activity (Mus musculus [2])	Activity (Mus musculus [8])	further results
> 12	> 12	> 12	> 12	> 12	22.7	> 12	> 12	> 12	Not Active	> 12	> 12	> 12	> 12	44.55	> 12	> 12	> 12	O=C(O)[C@H](CO)NC(=O)[C@H]1C[C@@H](O)CN1	inactive	inactive	Tmax [21]: 4 h
> 12	> 12	> 12	> 12	> 12	22.9	> 12	> 12	> 12	Not Active	> 12	> 12	> 12	> 12	50.73	> 12	> 12	> 12	O=C(O)[C@@H](CO)NC(=O)[C@H]1C[C@H](O)CN1	Active	Active	fold change (FC) (Mus musculus [22]): 1.5; Tmax [21]: 4 h; fold change (FC) [23]: 3.3
> 12	> 12	> 12	> 12	> 12	22.1	> 12	> 12	> 12	Not Active	> 12	> 12	> 12	> 12	49.92	> 12	> 12	> 12	O=C(N[C@H](CO)C(=O)O)[C@@H]1C[C@H](O)CN1	inactive	inactive	Tmax [21]: 4 h
